{"source": "ChEMBL document CHEMBL1921798", "about": "“Discovery of a potent, selective, and orally available class I phosphatidylinositol 3-kinase (PI3K)/mammalian target of rapamycin (mTOR) kinase inhibitor (GDC-0980) for the treatment of cancer” (J Med Chem, 2011)", "key": {"physchem [1]": {"assay": "physchem", "details": "buffer, pH 6.5", "description": "Thermodynamic solubility of the compound at pH 6.5"}, "physchem [2]": {"assay": "physchem", "details": "octanol/water", "description": "Lipophilicity, log D of the compound"}, "in vitro": {"assay": "in vitro", "details": "human, plasma", "description": "Plasma protein binding in human"}, "in vivo [3]": {"assay": "in vivo", "details": "beagle, dog, plasma, iv, 1 mg/kg"}, "in vivo [4]": {"assay": "in vivo", "details": "Sprague-Dawley, rat, plasma, iv, 1 mg/kg"}, "[5]": {"biological_target": "Serine/threonine-protein kinase mTOR (Homo sapiens, UniProt P42345)", "description": "Inhibition of human recombinant mTOR expressed in insect cells assessed as phosphorylation of recombinant (GFP)-4-EBP1 measured after 30 mins by fluorescence polarization assay"}, "[6]": {"biological_target": "Phosphatidylinositol 4,5-bisphosphate 3-kinase catalytic subunit alpha isoform (Homo sapiens, UniProt P42336)", "sequence (P42336 whole entry, canonical isoform)": "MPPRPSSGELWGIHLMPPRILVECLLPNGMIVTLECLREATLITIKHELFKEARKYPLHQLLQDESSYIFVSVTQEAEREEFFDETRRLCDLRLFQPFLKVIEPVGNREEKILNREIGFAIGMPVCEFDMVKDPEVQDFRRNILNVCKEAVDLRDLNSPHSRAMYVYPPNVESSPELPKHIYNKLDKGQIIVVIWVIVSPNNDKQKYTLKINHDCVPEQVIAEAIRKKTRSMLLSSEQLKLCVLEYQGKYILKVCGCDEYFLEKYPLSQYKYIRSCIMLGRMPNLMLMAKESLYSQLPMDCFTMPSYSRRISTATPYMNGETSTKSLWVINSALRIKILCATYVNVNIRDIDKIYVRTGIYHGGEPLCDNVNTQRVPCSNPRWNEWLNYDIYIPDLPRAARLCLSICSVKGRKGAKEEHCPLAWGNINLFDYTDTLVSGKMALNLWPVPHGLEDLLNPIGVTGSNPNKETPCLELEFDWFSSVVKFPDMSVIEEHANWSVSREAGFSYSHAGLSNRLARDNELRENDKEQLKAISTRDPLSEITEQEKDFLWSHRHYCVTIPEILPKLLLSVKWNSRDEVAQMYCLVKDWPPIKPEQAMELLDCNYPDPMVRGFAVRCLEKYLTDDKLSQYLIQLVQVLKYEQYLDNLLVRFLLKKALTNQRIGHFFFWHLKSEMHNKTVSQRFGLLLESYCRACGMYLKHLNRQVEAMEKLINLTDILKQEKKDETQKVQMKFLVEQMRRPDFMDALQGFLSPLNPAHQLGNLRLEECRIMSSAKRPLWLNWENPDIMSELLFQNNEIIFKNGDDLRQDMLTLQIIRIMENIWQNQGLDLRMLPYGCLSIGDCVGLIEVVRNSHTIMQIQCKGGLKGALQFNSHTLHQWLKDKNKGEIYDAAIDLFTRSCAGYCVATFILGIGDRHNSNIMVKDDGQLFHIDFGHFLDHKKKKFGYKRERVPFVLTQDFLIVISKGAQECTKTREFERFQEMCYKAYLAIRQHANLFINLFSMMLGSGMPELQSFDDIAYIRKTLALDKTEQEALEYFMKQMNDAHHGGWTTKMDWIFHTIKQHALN", "description": "Inhibition of PI3K subunit p110alpha assessed as formation of phosphatidylinositide-3-phosphate product formation after 30 mins by fluorescence polarization assay"}, "[7]": {"biological_target": "Phosphatidylinositol 4,5-bisphosphate 3-kinase catalytic subunit gamma isoform (Homo sapiens, UniProt P48736)", "sequence (P48736 whole entry, canonical isoform)": "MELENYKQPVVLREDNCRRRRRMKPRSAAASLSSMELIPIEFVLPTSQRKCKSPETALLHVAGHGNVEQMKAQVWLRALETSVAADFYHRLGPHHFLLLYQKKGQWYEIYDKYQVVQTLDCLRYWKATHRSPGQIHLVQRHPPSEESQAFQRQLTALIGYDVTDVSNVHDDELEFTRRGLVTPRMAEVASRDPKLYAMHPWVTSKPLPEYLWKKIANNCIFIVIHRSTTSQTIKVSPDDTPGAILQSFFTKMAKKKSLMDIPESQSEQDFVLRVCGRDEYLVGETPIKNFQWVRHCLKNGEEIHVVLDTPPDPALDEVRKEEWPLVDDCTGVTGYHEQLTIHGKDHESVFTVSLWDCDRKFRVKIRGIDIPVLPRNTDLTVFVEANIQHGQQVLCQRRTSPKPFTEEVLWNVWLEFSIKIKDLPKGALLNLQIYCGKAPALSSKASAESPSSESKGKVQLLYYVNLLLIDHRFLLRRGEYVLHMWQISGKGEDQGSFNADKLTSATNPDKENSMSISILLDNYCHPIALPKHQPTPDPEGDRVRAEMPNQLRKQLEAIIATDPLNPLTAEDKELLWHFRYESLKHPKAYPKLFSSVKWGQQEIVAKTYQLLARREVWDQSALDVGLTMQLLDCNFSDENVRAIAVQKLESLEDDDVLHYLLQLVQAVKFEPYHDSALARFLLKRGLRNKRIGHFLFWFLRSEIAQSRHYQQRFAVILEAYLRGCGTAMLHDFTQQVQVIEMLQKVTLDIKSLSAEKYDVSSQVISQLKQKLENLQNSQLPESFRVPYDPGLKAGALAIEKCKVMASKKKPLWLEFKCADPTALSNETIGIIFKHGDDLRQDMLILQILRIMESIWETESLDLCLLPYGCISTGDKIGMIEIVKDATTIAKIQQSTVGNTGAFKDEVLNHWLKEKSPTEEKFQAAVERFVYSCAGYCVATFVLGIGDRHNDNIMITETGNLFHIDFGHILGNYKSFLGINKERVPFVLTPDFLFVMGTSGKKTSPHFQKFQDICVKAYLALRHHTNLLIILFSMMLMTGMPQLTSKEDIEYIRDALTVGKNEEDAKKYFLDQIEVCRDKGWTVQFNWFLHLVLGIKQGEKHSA"}, "[8]": {"biological_target": "T1, Phosphatidylinositol 4,5-bisphosphate 3-kinase catalytic subunit delta isoform (Homo sapiens, UniProt O00329)", "T1 sequence (O00329 whole entry)": "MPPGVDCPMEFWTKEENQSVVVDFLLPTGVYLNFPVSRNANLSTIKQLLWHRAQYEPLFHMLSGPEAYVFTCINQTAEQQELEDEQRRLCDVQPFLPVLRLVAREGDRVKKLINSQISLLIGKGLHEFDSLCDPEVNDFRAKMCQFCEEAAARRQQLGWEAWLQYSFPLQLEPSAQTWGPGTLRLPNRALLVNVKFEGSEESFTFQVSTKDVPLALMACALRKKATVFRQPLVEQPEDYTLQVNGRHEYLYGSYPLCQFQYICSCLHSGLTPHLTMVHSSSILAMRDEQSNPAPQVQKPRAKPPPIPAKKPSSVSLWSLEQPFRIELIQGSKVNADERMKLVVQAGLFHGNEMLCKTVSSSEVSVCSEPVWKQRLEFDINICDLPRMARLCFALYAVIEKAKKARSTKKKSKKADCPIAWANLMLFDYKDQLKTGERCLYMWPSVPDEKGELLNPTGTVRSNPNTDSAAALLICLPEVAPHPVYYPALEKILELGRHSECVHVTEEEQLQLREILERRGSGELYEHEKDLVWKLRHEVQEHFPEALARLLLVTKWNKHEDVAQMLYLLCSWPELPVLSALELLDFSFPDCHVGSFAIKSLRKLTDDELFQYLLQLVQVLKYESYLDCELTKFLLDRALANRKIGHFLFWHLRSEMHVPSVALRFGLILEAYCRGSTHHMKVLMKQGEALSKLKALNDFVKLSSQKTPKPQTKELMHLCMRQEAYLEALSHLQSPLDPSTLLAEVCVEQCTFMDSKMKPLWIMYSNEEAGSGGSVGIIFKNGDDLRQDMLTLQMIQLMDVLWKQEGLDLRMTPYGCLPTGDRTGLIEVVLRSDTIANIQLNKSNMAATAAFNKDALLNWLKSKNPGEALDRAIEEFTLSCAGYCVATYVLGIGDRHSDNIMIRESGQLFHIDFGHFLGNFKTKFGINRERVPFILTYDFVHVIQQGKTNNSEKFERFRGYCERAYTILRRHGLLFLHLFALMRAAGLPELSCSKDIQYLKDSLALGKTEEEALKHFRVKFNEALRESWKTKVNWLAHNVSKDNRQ"}, "[9]": {"biological_target": "Phosphatidylinositol 4,5-bisphosphate 3-kinase catalytic subunit beta isoform (Homo sapiens, UniProt P42338)", "sequence (P42338 whole entry, canonical isoform)": "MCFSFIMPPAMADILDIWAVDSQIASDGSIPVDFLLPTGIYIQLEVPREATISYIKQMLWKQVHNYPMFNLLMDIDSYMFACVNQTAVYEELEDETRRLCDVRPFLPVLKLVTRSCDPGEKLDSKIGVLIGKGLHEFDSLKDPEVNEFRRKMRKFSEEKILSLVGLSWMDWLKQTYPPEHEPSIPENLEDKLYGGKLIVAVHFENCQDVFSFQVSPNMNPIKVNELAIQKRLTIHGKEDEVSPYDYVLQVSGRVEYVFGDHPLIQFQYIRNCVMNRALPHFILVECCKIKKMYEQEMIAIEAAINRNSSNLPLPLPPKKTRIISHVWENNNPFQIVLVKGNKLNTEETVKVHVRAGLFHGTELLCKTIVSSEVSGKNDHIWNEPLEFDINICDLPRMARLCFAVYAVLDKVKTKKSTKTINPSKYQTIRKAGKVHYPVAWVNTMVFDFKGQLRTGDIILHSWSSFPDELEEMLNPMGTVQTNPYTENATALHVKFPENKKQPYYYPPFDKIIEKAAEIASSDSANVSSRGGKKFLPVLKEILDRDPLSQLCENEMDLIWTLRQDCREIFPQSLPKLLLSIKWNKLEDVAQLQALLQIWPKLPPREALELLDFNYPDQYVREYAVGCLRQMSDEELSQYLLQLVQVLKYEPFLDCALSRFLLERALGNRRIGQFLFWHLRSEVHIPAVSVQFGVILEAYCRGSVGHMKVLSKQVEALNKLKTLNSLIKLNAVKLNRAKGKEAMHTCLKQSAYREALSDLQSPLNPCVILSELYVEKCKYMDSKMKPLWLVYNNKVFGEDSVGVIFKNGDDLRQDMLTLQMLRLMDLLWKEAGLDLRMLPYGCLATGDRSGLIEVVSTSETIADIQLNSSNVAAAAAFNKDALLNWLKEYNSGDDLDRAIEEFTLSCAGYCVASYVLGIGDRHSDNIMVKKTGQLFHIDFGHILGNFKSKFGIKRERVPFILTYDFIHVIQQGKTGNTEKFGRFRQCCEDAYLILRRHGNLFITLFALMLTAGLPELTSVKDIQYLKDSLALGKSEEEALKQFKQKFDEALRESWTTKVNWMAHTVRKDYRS", "description": "Inhibition of PI3K subunit p110beta assessed as formation of phosphatidylinositide-3-phosphate product formation after 30 mins by fluorescence polarization assay"}, "in vivo [10]": {"assay": "in vivo", "details": "Sprague-Dawley, rat, po, 1 mg/kg"}}, "data": [{"smiles": "CS(=O)(=O)N1CCN(Cc2cc3nc(-c4cnc(N)nc4)nc(N4CCOCC4)c3s2)CC1", "values": [{"measurement": "solubility thermodynamic", "setting": "physchem [1]", "value": 24, "unit": "µg/mL"}, {"measurement": "logD", "setting": "physchem [2]", "value": 1.3}, {"measurement": "fraction unbound", "setting": "in vitro", "value": 0.49}]}, {"smiles": "CS(=O)(=O)N1CCN(Cc2cc3nc(-c4cnc(N)nc4)nc(N4CCOCC4)c3s2)CC1.Cl", "values": [{"measurement": "clearance", "setting": "in vivo [3]", "value": 22, "unit": "mL/min/kg"}]}, {"smiles": "CS(=O)(=O)N1CCN(Cc2cc3nc(-c4cnc(N)nc4)nc(N4CCOCC4)c3s2)CC1.O=C(O)C(F)(F)F", "values": [{"measurement": "clearance", "setting": "in vivo [4]", "value": 24, "unit": "mL/min/kg"}]}, {"smiles": "Cc1c(CN2CCN(S(C)(=O)=O)CC2)sc2c(N3CCOCC3)nc(-c3cnc(N)nc3)nc12", "values": [{"measurement": "solubility thermodynamic", "setting": "physchem [1]", "value": 9, "unit": "µg/mL"}, {"measurement": "fraction unbound", "setting": "in vitro", "value": 0.23}]}, {"smiles": "Cc1c(CN2CCN(C(=O)CN)CC2)sc2c(N3CCOCC3)nc(-c3cnc(N)nc3)nc12", "values": [{"measurement": "solubility thermodynamic", "setting": "physchem [1]", "value": 690, "unit": "µg/mL"}, {"measurement": "Ki", "setting": "[5]", "value": 12, "unit": "nM"}, {"measurement": "IC50", "setting": "[6]", "value": 0.7, "unit": "nM"}, {"measurement": "IC50", "setting": "[7]", "value": 17, "unit": "nM"}, {"measurement": "IC50", "setting": "[8]", "value": 4.3, "unit": "nM"}, {"measurement": "IC50", "setting": "[9]", "value": 11, "unit": "nM"}]}, {"smiles": "Cc1c(CN2CCN(C(=O)C(C)(C)O)CC2)sc2c(N3CCOCC3)nc(-c3cnc(N)nc3)nc12", "values": [{"measurement": "solubility thermodynamic", "setting": "physchem [1]", "value": 600, "unit": "µg/mL"}, {"measurement": "Ki", "setting": "[5]", "value": 14, "unit": "nM"}, {"measurement": "IC50", "setting": "[7]", "value": 25, "unit": "nM"}, {"measurement": "IC50", "setting": "[8]", "value": 5, "unit": "nM"}, {"measurement": "IC50", "setting": "[9]", "value": 45, "unit": "nM"}]}, {"smiles": "Cc1c(CN2CCN(C(=O)CO)CC2)sc2c(N3CCOCC3)nc(-c3cnc(N)nc3)nc12", "values": [{"measurement": "Ki", "setting": "[6]", "value": 2.8, "unit": "nM"}, {"measurement": "IC50", "setting": "[7]", "value": 10, "unit": "nM"}, {"measurement": "IC50", "setting": "[8]", "value": 5.6, "unit": "nM"}, {"measurement": "IC50", "setting": "[9]", "value": 19, "unit": "nM"}]}, {"smiles": "Cc1c(CN2CCN(C(=O)C(C)(C)O)CC2)sc2c(N3CCOCC3)nc(-c3cnc(N)nc3)nc12.O=C(O)C(F)(F)F", "values": [{"measurement": "clearance", "setting": "in vivo [4]", "value": 24, "unit": "mL/min/kg"}, {"measurement": "bioavailability", "setting": "in vivo [10]", "value": 71, "unit": "%"}]}, {"smiles": "Cc1c(CN2CCN(S(C)(=O)=O)CC2)sc2c(N3CCOCC3)nc(-c3cnc(N)nc3)nc12.Cl", "values": [{"measurement": "clearance", "setting": "in vivo [3]", "value": 5, "unit": "mL/min/kg"}]}, {"smiles": "Cc1c(CN2CCN(C(=O)C(C)(C)N)CC2)sc2c(N3CCOCC3)nc(-c3cnc(N)nc3)nc12.O=C(O)C(F)(F)F", "values": [{"measurement": "clearance", "setting": "in vivo [4]", "value": 84, "unit": "mL/min/kg"}, {"measurement": "bioavailability", "setting": "in vivo [10]", "value": 6, "unit": "%"}]}, {"smiles": "Cc1c(CN2CCN(C(=O)C(C)(C)N)CC2)sc2c(N3CCOCC3)nc(-c3cnc(N)nc3)nc12", "values": [{"measurement": "solubility thermodynamic", "setting": "physchem [1]", "value": 1000, "unit": "µg/mL"}, {"measurement": "Ki", "setting": "[5]", "value": 14, "unit": "nM"}, {"measurement": "IC50", "setting": "[7]", "value": 20, "unit": "nM"}, {"measurement": "IC50", "setting": "[8]", "value": 1.5, "unit": "nM"}, {"measurement": "IC50", "setting": "[9]", "value": 44, "unit": "nM"}]}, {"smiles": "Cc1c(CN2CCN(C(=O)CN)CC2)sc2c(N3CCOCC3)nc(-c3cnc(N)nc3)nc12.O=C(O)C(F)(F)F", "values": [{"measurement": "clearance", "setting": "in vivo [4]", "value": 140, "unit": "mL/min/kg"}, {"measurement": "bioavailability", "setting": "in vivo [10]", "value": 0, "unit": "%"}]}, {"smiles": "Cc1c(CN2CCN(C(=O)[C@H](C)N)CC2)sc2c(N3CCOCC3)nc(-c3cnc(N)nc3)nc12", "values": [{"measurement": "Ki", "setting": "[5]", "value": 6.3, "unit": "nM"}, {"measurement": "IC50", "setting": "[7]", "value": 37, "unit": "nM"}, {"measurement": "IC50", "setting": "[8]", "value": 2.4, "unit": "nM"}, {"measurement": "IC50", "setting": "[9]", "value": 29, "unit": "nM"}]}, {"smiles": "Cc1c(CN2CCN(S(C)(=O)=O)CC2)sc2c(N3CCOCC3)nc(-c3cnc(N)nc3)nc12.O=C(O)C(F)(F)F", "values": [{"measurement": "clearance", "setting": "in vivo [4]", "value": 13, "unit": "mL/min/kg"}]}]}
